Positions count from the first letter of the chain named.
How the values were obtained:
WT PXR = target: T1, WT PXR (Homo sapiens, UniProt O75469); assay: Reporter gene assay (p3A4-pGL3, CYP3A4 promoter) in COS-1 cells expressing WT PXR; conditions: 1 μM ligand, without PGC1α (Fig. S7)
T1 sequence (O75469 1-434): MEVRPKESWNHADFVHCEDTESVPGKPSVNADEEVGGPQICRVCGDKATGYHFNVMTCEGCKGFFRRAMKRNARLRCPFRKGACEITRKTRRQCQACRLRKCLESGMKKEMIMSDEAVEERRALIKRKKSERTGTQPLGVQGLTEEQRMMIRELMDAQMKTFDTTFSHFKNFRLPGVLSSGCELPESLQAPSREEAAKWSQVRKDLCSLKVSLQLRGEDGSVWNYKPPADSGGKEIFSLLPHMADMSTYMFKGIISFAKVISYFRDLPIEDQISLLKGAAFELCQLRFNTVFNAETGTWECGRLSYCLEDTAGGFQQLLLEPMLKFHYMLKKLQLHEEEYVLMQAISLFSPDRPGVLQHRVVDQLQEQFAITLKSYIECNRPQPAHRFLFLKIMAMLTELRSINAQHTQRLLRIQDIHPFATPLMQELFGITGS
Experimental: (§1) COS-1 cells were cultured in Dulbecco's Modified Eagle medium (DMEM, Fujifilm Wako Pure Chemical) supplemented with 10% fetal bovine serum (FBS, GE Healthcare), MEM nonessential amino acids, and antibiotic-antimycotic (Thermo Fisher Scientific). Twenty-four hours after seeding, the culture medium was replaced with prewarmed DMEM without FBS, and plasmids were transfected with Lipofectamine 3000 (Thermo Fisher Scientific) according to the manufacturer’s instructions.
(§2) Firefly luciferase luminescence was normalized to Renilla luciferase luminescence.

PXR-F420A = target: T2, PXR-F420A (Homo sapiens, UniProt O75469, F420A); assay: Reporter gene assay (p3A4-pGL3, CYP3A4 promoter) in COS-1 cells expressing PXR-F420A; conditions: 1 μM ligand, without PGC1α (Fig. S7)
T2 sequence (O75469 1-434 F420A): T1 sequence (O75469 1-434) with F420A
Experimental: as §1, §2

Clc1ccccc1C(c1ccccc1)(c1ccccc1)n1ccnc1 [clotrimazole, Clotrimazole]
Induction of reporter activity, WT PXR (WT PXR): weak induction
Induction of reporter activity, PXR-F420A (PXR-F420A): but not for PXR-F420A
